# Key:
# [1] = patients with cancer, 150 mg/day dose; 500 ng/ml is the average concentration targeted for clinical efficacy; cited from earlier work
# [2] = test system: patients with advanced NSCLC following failure of at least one prior chemotherapy regimen; assay: Open-label predictive marker identification Phase II study of Tarceva monotherapy 150 mg/day; RECIST response and survival; type: in vivo, human; details: 102 patients with evaluable microarray data
# Procedure: The selection of this dose was based on pharmacokinetic parameters, as well as the safety and tolerability profile of this dose observed in Phase I, II and III trials in heavily pre-treated patients with advanced cancer. Drug levels seen in the plasma of patients with cancer receiving the 150 mg/day dose were consistently above the average plasma concentration of 500 ng/ml targeted for clinical efficacy.
# This was an open-label, predictive marker identification Phase II study. The study was conducted in approximately 26 sites in about 12 countries. 264 patients with advanced NSCLC following failure of at least one prior chemotherapy regimen were enrolled over a 12 month period. […] Dose reductions were permitted based on tolerability to drug therapy. Clinical and laboratory parameters were assessed to evaluate disease control and toxicity. Treatment continued until disease progression, unacceptable toxicity or death. The study design is depicted in FIG. 1.
# The RECIST (Uni-dimensional Tumour Measurement) criteria were used to evaluate response. These criteria can be found under the following link: […]
# A regular status check every 3 months was performed either by a patient's visit to the clinic or by telephone. All deaths were recorded. […]
# [3] = test system: NSCLC patients for whom standard therapy for advanced disease has failed; details: single agent versus placebo, BR.21; cited from earlier work
smiles,measurement,setting,value
"C#Cc1cccc(Nc2ncnc3cc(OCCOC)c(OCCOC)cc23)c1 [Erlotinib, erlotinib]",Drug levels in plasma,[1],> 500 ng/mL
same,Best Response PD,[2],(48.0%)
same,Best Response PR,[2],(5.9%)
same,survival of NSCLC patients,[3],significantly prolongs and improves the survival
